Assay results as given in patent US4466963A, “Pharmaceutical compositions” (John Wyeth & Brother Limited, priority 1982, dated 1984).

What was measured:
[1] = brain concentration of meptazinol after administration of 3H meptazinol alone or with ibuprofen; assay type: in vivo, mice; settings: for brain concentration of meptazinol: meptazinol 40 mg/kg po, or meptazinol + ibuprofen 40 + 240
Protocol: In a further experiment the brain concentration of meptazinol was measured after administration of meptazinol alone or a combination of ibuprofen and meptazinol. Groups of mice were given meptazinol (40 mg/kg) alone or meptazinol+ibuprofen (40+240 mg/kg) po containing 25 μCi/mouse of^3 H meptazinol. Six mice from each group were decapitated at 30 min intervals after dosing. The brain of each animal was removed and after the removal of the cerebellum, pons and medulla the remainder was homogenised in 10 ml ice cold Tris buffer. This was immediately centrifuged at 20,000 rpm for 5 min then a single 1 ml aliquot of the supernatant was taken for counting.

[2] = system: mice pretreated with carrageenin (hot-plate response); experiment: hot-plate response latency (brass hot-plate, 55° C.) of mice pretreated with carrageenin; assay type: in vivo; settings: for Increase in latency (sec) cf. pre-dose control / Latency (sec) pre-dose control: ibuprofen 240, meptazinol 40, combination 240 + 40 mg/kg po; for Latency (sec) pre-dose control: pre-dose baseline of the group, SEM on the line below
Protocol: For example in one method used to measure the antinociceptive effects of meptazinol, ibuprofen and combinations of the two drugs, groups of 9 mice were given 0.025 ml of 2% carrageenin (in saline) sc into the plantar surface of both hind feet 3.0 hours before treatment. The latency to a distinct response following placement of the mice on a brass hot-plate (55° C.) was measured immediately prior to dosing with vehicle (0.5% hydroxypropyl-methylcellulose in water) or with drug.
The antinociceptive response at each recording time (t) was defined as the reaction time of the mouse at time t minus the reaction time at t=0 (immediately prior to dosing).
The results after dosing with vehicle, ibuprofen (240 mg/kg), meptazinol (40 mg/kg) and a combination of ibuprofen (240 mg/kg)+meptazinol (40 mg/kg) are given in Table 1 below: […]

normal mice (tail flick) = experiment: tail flick latency (tail immersion in water at 50° C.); assay type: in vivo
Protocol: In a further experiment groups of 10 normal mice were given meptazinol (40 mg/kg), ibuprofen (240 mg/kg), a mixture containing these doses of meptazinol and ibuprofen or the requisite volume of vehicle po immediately after measuring the latency to a distinct tail flick (following tail immersion in water at 50° C.). Tail flick latencies were measured again at 30 min intervals post dosing. As the mean pre-dose latencies of mice subjected to the tail immersion procedure were so similar to one another comparisons of the actual latencies at each recording time were made (Student's "t" test).

[3] = rats given 3H meptazinol; previous studies; cited from earlier work
rats (gastric erosion) = settings: well known for non-steroidal anti-inflammatory agents; cited from earlier work
[4] = 30 min post dosing, *p < .02 cf vehicle, x p < .02 cf meptazinol alone
[5] = 60 min post dosing, *p < .02 cf vehicle
[6] = 90 min post dosing, x p < .02 cf meptazinol alone
[7] = 30 min post dosing, ibuprofen 240, meptazinol 40, combination 40 + 240 mg/kg po, x p < .05 cf meptazinol alone
[8] = 60 min post dosing, ibuprofen 240, meptazinol 40, combination 40 + 240 mg/kg po, xx p < .01 cf meptazinol alone
[9] = 90 min post dosing, ibuprofen 240, meptazinol 40, combination 40 + 240 mg/kg po
[10] = time 0 (pre-dose), ibuprofen 240, meptazinol 40, combination 40 + 240 mg/kg po, SEM on the line below

| Compound | Increase in latency (sec) cf. pre-dose control [2, 4] [s] | Increase in latency (sec) cf. pre-dose control [2, 5] [s] | Increase in latency (sec) cf. pre-dose control [2, 6] [s] | Latency (sec) pre-dose control [2] [s] | Latency to a distinct tail flick (normal mice (tail flick); [7]) [s] | Latency to a distinct tail flick (normal mice (tail flick); [8]) [s] | Latency to a distinct tail flick (normal mice (tail flick); [9]) [s] | Latency to a distinct tail flick (normal mice (tail flick); [10]) [s] | other results |
| --- | --- | --- | --- | --- | --- | --- | --- | --- | --- |
| CCC1(c2cccc(O)c2)CCCCN(C)C1 (stereo not drawn) [Meptazinol, m-(3-ethylhexahydro-1-methyl[1H]azepin-3-yl) phenol] | 4.76 | 3.00 | 1.76 | 6.41 | 4.24 | 4.85 | 4.80 | 3.43 | brain concentration of meptazinol ([1]; 30 min post treatment, **p < .01 cf meptazinol alone, (SEM not stated) on the line below): 18.4 Counts × 1000/min/g brain; brain concentration of meptazinol ([1]; 60 min post treatment): 12.0 Counts × 1000/min/g brain; brain concentration of meptazinol ([1]; 90 min post treatment, *p < .05 cf meptazinol alone): 7.4 Counts × 1000/min/g brain; brain concentration of meptazinol ([1]; 120 min post treatment, **p < .01 cf meptazinol alone): 4.7 Counts × 1000/min/g brain; concentration of tritium in the brain cf. same dose of meptazinol with 240 mg/kg ibuprofen ([1]; meptazinol 40 mg/kg, 30, 60 and 90 min post dosing): approximately half; Latency to a distinct tail flick (normal mice (tail flick); 30 min post dosing, meptazinol 80 mg/kg po, ***p < .0001 cf vehicle control): 6.95 s; Latency to a distinct tail flick (normal mice (tail flick); 60 min post dosing, meptazinol 80 mg/kg po, **p < .01): 6.75 s; Latency to a distinct tail flick (normal mice (tail flick); 90 min post dosing, meptazinol 80 mg/kg po, ***p < .0001 cf vehicle control): 6.37 s; antinociceptive response (tail flick) (normal mice (tail flick); meptazinol 40 mg/kg alone): did induce a significant antinociceptive response; Latency to a distinct tail flick (normal mice (tail flick); time 0 (pre-dose), meptazinol 80 mg/kg po): 3.54 s; tritium in the brain in the form of meptazinol [3]: virtually all |
| CC(C)Cc1ccc(C(C)C(=O)O)cc1 (stereo not drawn) [Ibuprofen, 2-(4-isobutylphenyl)propionic acid] | -0.72 | -1.56 | -1.30 | 7.16 | 2.75 | 3.04 | 3.94 | 3.43 | antinociceptive response ([2]; ibuprofen 240 mg/kg alone): did not produce any antinociceptive response; effect on the tail flick latency (normal mice (tail flick); ibuprofen alone, 240 mg/kg po): did not significantly affect the tail flick latency; gastric damage (rats (gastric erosion)): induce gastric damage |
